The values that follow come from ChEMBL document CHEMBL1154879, “Discovery of (thienopyrimidin-2-yl)aminopyrimidines as potent, selective, and orally available pan-PI3-kinase and dual pan-PI3-kinase/mTOR inhibitors for the treatment of cancer” (J Med Chem, 2010).

One data set has as its target T1, Aurora kinase A (Homo sapiens, UniProt O14965).
T1 sequence (O14965 whole entry): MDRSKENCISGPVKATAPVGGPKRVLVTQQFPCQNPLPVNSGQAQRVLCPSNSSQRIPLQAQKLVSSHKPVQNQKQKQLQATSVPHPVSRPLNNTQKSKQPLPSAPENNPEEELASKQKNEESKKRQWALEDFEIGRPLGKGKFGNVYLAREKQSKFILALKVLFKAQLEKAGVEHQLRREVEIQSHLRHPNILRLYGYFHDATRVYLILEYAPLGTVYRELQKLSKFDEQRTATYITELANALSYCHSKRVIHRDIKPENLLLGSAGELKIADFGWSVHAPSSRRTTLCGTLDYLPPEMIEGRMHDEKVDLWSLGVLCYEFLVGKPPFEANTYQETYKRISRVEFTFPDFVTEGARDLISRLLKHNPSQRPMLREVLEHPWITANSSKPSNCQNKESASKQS
Briefly: Inhibition of Aurora A kinase.

For data set [1], the target named is Phosphatidylinositol 4-phosphate 3-kinase C2 domain-containing subunit beta (Homo sapiens) (UniProt O00750). Put plainly: Inhibition of PIK3C2beta at 1 uM.
Data set [2] is described as follows: Antitumor activity against human MCF7.1 cells expressing PI3Kalpha mutant xenografted in nu/nu mouse assessed as inhibition of tumor growth at 50 mg/kg, po qd for 21 days. The class given is functional. Particulars: MCF7.1, 504 h, read-out: TGI.
The target of data set [3] is Serine/threonine-protein kinase mTOR (Homo sapiens, UniProt P42345).
Data set [4] concerns Mus musculus. Briefly: Inhibition of PI3K/Akt/mTOR pathway signaling in PI3Kalpha mutant expressing human MCF7.1 cells xenografted nu/nu mouse assessed as inhibition of Akt Ser473 phosphorylation at 25 mg/kg, po qd for 21 days measured 1 hr after last administered dose on day 21 by electrochemiluminescence assay. The format is functional.
For data set [5], the system named is Mus musculus. Briefly: Inhibition of PI3K/Akt/mTOR pathway signaling in PI3Kalpha mutant expressing human MCF7.1 cells xenografted nu/nu mouse assessed as inhibition of Pras40 Thr246 phosphorylation at 12.5 mg/kg, po qd for 21 days measured 4 hrs after last administered dose on day 21 by ELISA. The format is functional. A general note: A xenograft is tissue or cells of one species grown in another, often human tumour cells in immunodeficient mice.

Data set [6] has as its target T2, Phosphatidylinositol 4,5-bisphosphate 3-kinase catalytic subunit delta isoform (Homo sapiens, UniProt O00329).
T2 sequence (O00329 whole entry): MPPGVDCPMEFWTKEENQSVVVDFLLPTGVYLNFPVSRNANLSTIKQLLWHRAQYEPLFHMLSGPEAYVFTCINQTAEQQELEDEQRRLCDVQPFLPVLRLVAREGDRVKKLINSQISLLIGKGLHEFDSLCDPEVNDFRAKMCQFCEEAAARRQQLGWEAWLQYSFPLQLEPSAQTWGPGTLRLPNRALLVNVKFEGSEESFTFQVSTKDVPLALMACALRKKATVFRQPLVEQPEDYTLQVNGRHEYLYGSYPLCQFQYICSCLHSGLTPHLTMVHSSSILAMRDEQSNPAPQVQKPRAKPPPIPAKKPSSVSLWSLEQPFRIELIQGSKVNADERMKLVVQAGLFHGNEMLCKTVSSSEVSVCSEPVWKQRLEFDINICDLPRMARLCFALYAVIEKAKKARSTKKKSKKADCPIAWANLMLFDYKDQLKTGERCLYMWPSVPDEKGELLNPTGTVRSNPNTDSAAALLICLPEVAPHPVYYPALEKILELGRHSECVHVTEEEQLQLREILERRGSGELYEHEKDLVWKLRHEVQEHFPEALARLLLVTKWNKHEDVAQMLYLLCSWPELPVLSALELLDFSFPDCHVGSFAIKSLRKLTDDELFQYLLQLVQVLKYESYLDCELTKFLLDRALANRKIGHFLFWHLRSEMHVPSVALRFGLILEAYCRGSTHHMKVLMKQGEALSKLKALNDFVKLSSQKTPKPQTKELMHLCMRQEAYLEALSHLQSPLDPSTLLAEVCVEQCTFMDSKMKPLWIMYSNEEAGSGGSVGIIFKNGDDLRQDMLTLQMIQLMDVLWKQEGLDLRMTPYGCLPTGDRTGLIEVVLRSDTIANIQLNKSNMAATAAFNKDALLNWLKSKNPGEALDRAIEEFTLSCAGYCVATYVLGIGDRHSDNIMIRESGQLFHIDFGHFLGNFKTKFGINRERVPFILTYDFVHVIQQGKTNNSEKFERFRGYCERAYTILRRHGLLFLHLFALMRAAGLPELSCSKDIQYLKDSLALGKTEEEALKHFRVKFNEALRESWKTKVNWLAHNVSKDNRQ

The test system of data set [7] is Mus musculus. Put plainly: Inhibition of PI3K/Akt/mTOR pathway signaling in PI3Kalpha mutant expressing human MCF7.1 cells xenografted nu/nu mouse assessed as inhibition of Akt Ser473 phosphorylation at 25 mg/kg, po qd for 21 days measured 4 hrs after last administered dose on day 21 by electrochemiluminescence assay. The class given is functional.
The target of data set [8] is Phosphatidylinositol 4,5-bisphosphate 3-kinase catalytic subunit beta isoform (Homo sapiens, UniProt P42338). Briefly: Inhibition of recombinant PI3Kbeta assessed as PIP3 product formation by fluorescence polarization assay. On the technique in general: Fluorescence polarisation rises when a labelled molecule tumbles more slowly, as on binding a larger partner.
Data set [9] relates to Mus musculus. Briefly: Inhibition of PI3K/Akt/mTOR pathway signaling in PI3Kalpha mutant expressing human MCF7.1 cells xenografted nu/nu mouse assessed as inhibition of S6RP Ser235/236 phosphorylation at 12.5 mg/kg, po qd for 21 days measured 1 hr after last administered dose on day 21 by electrochemiluminescence assay. The class given is functional.
In data set [10] the test system is Mus musculus. Put plainly: Inhibition of PI3K/Akt/mTOR pathway signaling in PI3Kalpha mutant expressing human MCF7.1 cells xenografted nu/nu mouse assessed as inhibition of Pras40 Thr246 phosphorylation at 25 mg/kg, po qd for 21 days measured 4 hrs after last administered dose on day 21 by ELISA. The format is functional.
Data set [11] relates to Mus musculus. Briefly: Inhibition of PI3K/Akt/mTOR pathway signaling in PI3Kalpha mutant expressing human MCF7.1 cells xenografted nu/nu mouse assessed as inhibition of Pras40 Thr246 phosphorylation at 6.25 mg/kg, po qd for 21 days measured 1 hr after last administered dose on day 21 by ELISA. The class given is functional.
A short description of data set [12]: AUC in nu/nu mouse at 5 mg/kg, po. The class given is ADME, organism-based. The arrangement: dose 5 mg/kg, route oral. Particulars: plasma.
The subject of data set [13] is Mus musculus. Briefly: Inhibition of PI3K/Akt/mTOR pathway signaling in PI3Kalpha mutant expressing human MCF7.1 cells xenografted nu/nu mouse assessed as inhibition of Pras40 Thr246 phosphorylation at 6.25 mg/kg, po qd for 21 days measured 4 hrs after last administered dose on day 21 by ELISA. The format is functional.
In data set [14] the test system is Mus musculus. Put plainly: Inhibition of PI3K/Akt/mTOR pathway signaling in PI3Kalpha mutant expressing human MCF7.1 cells xenografted nu/nu mouse assessed as inhibition of Pras40 Thr246 phosphorylation at 25 mg/kg, po qd for 21 days measured 1 hr after last administered dose on day 21 by ELISA. The format is functional.

Each structure is given as a SMILES string.

Phosphatidylinositol 4,5-bisphosphate 3-kinase catalytic subunit beta isoform, sequence (P42338 whole entry, canonical isoform): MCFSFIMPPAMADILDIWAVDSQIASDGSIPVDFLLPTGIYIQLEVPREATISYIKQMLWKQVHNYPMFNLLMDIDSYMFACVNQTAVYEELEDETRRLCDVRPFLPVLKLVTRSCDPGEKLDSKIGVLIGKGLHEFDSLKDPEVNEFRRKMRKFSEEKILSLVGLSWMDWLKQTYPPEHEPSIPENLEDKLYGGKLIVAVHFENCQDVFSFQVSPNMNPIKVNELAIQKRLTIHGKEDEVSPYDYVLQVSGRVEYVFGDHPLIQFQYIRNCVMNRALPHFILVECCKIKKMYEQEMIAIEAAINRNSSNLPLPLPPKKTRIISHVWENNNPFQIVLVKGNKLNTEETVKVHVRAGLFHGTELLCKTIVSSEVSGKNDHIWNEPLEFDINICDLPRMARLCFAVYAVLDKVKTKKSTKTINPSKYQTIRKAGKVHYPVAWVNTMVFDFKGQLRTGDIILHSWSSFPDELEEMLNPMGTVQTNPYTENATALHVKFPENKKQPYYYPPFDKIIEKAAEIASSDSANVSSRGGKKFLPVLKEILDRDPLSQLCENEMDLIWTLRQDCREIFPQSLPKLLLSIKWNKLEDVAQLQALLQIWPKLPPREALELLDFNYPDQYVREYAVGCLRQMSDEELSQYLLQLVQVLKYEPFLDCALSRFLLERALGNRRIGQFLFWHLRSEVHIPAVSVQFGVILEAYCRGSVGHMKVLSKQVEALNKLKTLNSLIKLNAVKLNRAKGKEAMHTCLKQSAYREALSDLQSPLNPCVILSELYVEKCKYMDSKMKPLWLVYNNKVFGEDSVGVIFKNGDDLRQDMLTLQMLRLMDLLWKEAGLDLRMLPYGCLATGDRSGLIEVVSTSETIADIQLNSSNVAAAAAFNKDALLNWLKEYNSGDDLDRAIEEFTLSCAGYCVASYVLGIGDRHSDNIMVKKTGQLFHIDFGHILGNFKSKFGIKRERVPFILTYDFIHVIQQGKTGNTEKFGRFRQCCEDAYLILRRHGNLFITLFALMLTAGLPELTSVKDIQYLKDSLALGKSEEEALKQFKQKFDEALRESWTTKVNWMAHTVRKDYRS
Phosphatidylinositol 4-phosphate 3-kinase C2 domain-containing subunit beta (Homo sapiens), sequence (O00750 whole entry, the tested form may be a part): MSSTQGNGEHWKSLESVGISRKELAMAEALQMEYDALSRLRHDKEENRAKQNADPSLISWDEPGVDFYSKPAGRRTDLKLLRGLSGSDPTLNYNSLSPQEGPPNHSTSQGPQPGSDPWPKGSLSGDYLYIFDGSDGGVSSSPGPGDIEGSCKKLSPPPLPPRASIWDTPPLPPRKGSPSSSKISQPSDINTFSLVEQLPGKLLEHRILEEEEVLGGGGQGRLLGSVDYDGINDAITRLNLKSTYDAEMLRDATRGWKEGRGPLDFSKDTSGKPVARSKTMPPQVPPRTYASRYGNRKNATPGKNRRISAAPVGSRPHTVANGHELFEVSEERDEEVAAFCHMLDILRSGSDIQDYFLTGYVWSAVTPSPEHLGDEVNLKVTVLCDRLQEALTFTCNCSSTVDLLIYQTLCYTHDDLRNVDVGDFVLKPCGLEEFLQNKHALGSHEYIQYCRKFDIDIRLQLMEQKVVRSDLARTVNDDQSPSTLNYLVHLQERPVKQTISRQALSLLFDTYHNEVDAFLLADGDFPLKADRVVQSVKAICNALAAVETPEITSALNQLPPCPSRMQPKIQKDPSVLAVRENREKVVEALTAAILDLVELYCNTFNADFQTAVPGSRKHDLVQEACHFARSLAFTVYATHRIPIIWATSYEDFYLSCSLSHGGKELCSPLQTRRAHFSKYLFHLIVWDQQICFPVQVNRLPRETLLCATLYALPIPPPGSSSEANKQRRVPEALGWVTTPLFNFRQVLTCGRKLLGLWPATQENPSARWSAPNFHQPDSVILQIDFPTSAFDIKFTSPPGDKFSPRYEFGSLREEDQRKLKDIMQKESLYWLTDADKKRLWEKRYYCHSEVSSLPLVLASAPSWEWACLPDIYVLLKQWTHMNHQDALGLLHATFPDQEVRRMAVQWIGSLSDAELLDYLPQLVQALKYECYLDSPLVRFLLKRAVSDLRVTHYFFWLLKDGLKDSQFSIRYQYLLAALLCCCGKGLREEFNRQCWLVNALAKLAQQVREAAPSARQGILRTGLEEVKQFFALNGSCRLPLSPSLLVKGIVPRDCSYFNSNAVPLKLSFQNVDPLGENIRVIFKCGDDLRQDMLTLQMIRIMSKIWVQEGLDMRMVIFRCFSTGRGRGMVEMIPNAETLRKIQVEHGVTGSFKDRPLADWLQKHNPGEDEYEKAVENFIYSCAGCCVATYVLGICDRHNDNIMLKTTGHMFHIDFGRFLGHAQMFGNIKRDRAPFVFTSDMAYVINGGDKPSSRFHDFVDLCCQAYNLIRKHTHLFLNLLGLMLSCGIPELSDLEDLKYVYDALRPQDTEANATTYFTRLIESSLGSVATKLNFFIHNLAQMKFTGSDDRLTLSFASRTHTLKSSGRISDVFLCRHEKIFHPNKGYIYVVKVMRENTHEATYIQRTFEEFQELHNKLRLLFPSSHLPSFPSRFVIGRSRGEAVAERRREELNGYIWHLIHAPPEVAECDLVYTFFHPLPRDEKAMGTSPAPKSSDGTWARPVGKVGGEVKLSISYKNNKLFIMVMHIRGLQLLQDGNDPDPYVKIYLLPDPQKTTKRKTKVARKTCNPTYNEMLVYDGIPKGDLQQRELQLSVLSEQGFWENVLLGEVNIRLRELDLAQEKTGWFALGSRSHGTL

As usually defined, the IC50 is the concentration at which inhibition is half-maximal. Usually inhibition stands for how much of the control response was suppressed. A higher inhibition goes with a strong effect. In general, AUC refers to concentration integrated over time. Low values mean less exposure, high ones more exposure. With `Cc1nc(N)ncc1-c1nc(N2CCOCC2)c2sc(C(C)(C)O)cc2n1`, the half-inhibitory concentration (IC50) against Aurora kinase A is above 1000 nM; in data set [3], 750 nM; in data set [6], 5.2 nM; in [8], 25 nM. For the same molecule, the inhibition in data set [1] came to 81%. Moreover, the inhibition in vivo at 50 mg/kg in [2] worked out at 88%. Moreover, the inhibition in vivo at 25 mg/kg with Mus musculus [4] turned out to be 82%; in the data set on Mus musculus [7] it was 66%; in the data set with Mus musculus [10], 95%; with Mus musculus [14] it was 97%. Further, the inhibition in vivo at 12.5 mg/kg turned out to be 90% with Mus musculus [5] and 77% in the data set with Mus musculus [9]. In addition, the inhibition in vivo at 6.25 mg/kg amounted to 98% with Mus musculus [11] and 54% in the data set on Mus musculus [13]. This molecule gave an AUC in data set [12] of 4.8 µM·h.
